{"source": "patent US20240246968A1", "about": "“SMALL MOLECULE INHIBITORS OF KRAS G12C MUTANT” (Merck Sharp & Dohme LLC, priority 2021, published 2024)"}
{"test_system": "tumor-bearing mice expressing the KRAS G12C mutation", "assay": "not given", "settings": "cited from earlier work"}
{"smiles": "C=CC(=O)N1CCN(c2ncnc3c(F)c(-c4c(O)cccc4F)c(Cl)cc23)CC1", "note": "[ARS-1620]", "antitumor action": "exerts antitumor action"}
{"test_system": "cancer cells with the KRAS G12C mutation", "assay": "not given", "settings": "KRAS G12C mutated cell line, EGFR activation; cited from earlier work"}
{"smiles": "C=CC(=O)N1CC(N2CCN(C(=O)CNc3cc(C4(C)CC4)c(Cl)cc3O)CC2)C1", "note": "[ARS-853]", "inhibition of KRAS activity and antiproliferative effect under EGFR activation": "attenuated"}
{"test_system": "cancer cells with the KRAS G12C mutation", "assay": "not given", "settings": "cancer cells with the KRAS G12C mutation; cited from earlier work"}
{"smiles": "C=CC(=O)N1CC(N2CCN(C(=O)CNc3cc(C4(C)CC4)c(Cl)cc3O)CC2)C1", "note": "[ARS-853]", "induction of apoptosis": "inducing apoptosis"}
{"target": "biotinylated KRAS G12C protein (GMP-PNP loaded) and GST-tagged Ras binding domain of c-RAF (Homo sapiens, UniProt P01116, C118S/C51S/C80L/G12C)", "sequence (P01116 with tags, fused parts or gaps isoform P01116-2 G12C/C51S/C80L/C118S)": "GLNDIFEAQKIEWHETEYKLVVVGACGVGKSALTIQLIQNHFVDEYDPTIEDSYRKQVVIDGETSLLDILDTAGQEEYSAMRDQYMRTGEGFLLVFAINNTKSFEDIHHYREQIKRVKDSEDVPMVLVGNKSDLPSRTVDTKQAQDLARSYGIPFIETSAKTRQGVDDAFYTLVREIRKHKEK", "assay": "RAS:RAF-RBD binding assay (TR-FRET)", "format": "biochemical", "settings": "30-minute incubation with KRAS G12C, then RAF-RBD 60 minute", "units": {"IC50": "nM"}}
{"smiles": "Cc1nc2c(Cl)c(-c3cccn4c(C(=O)c5cc(F)c(NC(=O)/C=C/CNC6(C)CCOC6)c(F)c5)ccc34)c(C(F)(F)F)cc2n1C", "note": "(single isomer, unassigned) [Example 131b, (E)-N-(4-(8-(4-chloro-1,2-dimethyl-6-(trifluoromethyl)-1H-benzo[d]imidazol-5-yl)indolizine-3-carbonyl)-2,6-difluorophenyl)-4-((3-methyltetrahydrofuran-3-yl)amino)but-2-enamide]", "IC50": 12.4}
{"smiles": "CO[C@H]1CC[C@H](NC/C=C/C(=O)Nc2c(F)cc(C(=O)c3ccc4c(-c5cc6c(=O)n(C)ccc6cc5C(F)(F)F)cccn34)cc2F)CC1", "note": "[Example 125, (1r,4r)-N-((E)-4-((2,6-difluoro-4-(8-(2-methyl-1-oxo-6-(trifluoromethyl)-1,2-dihydroisoquinolin-7-yl)indolizine-3-carbonyl)phenyl)amino)-4-oxobut-2-en-1-yl)-4-methoxycyclohexan-1-aminium 2,2,2-trifluoroacetate]", "IC50": 398}
{"smiles": "CO[C@H]1CC[C@H](NC/C=C/C(=O)Nc2c(F)cc(C(=O)c3ccc4c(-c5c(C(F)(F)F)cc6c(cnn6C)c5Cl)cccn34)cc2F)CC1", "note": "(single isomer, unassigned) [Example 118, (E)-N-(4-(8-(4-chloro-1-methyl-6-(trifluoromethyl)-1H-indazol-5-yl)indolizine-3-carbonyl)-2,6-difluorophenyl)-4-(((1r,4r)-4-methoxycyclohexyl)amino)but-2-enamide]", "IC50": 461}
{"smiles": "Cc1nc2c(Cl)c(-c3cccn4c(C(=O)c5cc(F)c(NC(=O)/C=C/CNC6CCC6(C)C)c(F)c5)ccc34)c(C(F)(F)F)cc2n1C", "note": "(stereo not drawn) [Example 127, mono((E)-4-chloro-5-(3-(4-(4-((2,2-dimethylcyclobutyl)ammonio)but-2-enamido)-3,5-difluorobenzoyl)indolizin-8-yl)-1,2-dimethyl-6-(trifluoromethyl)-1H-benzo[d]imidazol-3-ium) mono(2,2,2-trifluoroacetate)]", "IC50": 403}
{"smiles": "CO[C@H]1CC[C@H](NC/C=C/C(=O)Nc2c(F)cc(C(=O)n3ccc4c(-c5c(C(F)(F)F)cc6c(nc(C)n6C)c5Cl)cccc43)cc2F)CC1", "note": "[Example 126, (E)-N-(4-(4-(4-chloro-1,2-dimethyl-6-(trifluoromethyl)-1H-benzo[d]imidazol-5-yl)-1H-indole-1-carbonyl)-2,6-difluorophenyl)-4-(((1r,4r)-4-methoxycyclohexyl)amino)but-2-enamide]", "IC50": 28.3}
{"smiles": "CO[C@H]1CC[C@H](NC/C=C/C(=O)Nc2c(F)cc(C(=O)c3ccc4c(-c5cc6c(cc5C(F)(F)F)CCN(C)C6=O)cccn34)cc2F)CC1", "note": "[Example 121, (1r,4r)-N-((E)-4-((2,6-difluoro-4-(8-(2-methyl-1-oxo-6-(trifluoromethyl)-1,2,3,4-tetrahydroisoquinolin-7-yl)indolizine-3-carbonyl)phenyl)amino)-4-oxobut-2-en-1-yl)-4-methoxycyclohexan-1-aminium 2,2,2-trifluoroacetate]", "IC50": 168}
{"smiles": "COc1c(-c2cccn3c(C(=O)c4cc(F)c(NC(=O)/C=C/CN[C@H]5CC[C@H](OC)CC5)c(F)c4)ccc23)c(C(F)(F)F)cc2c1cnn2C", "note": "(single isomer, unassigned) [Example 117, (E)-N-(2,6-difluoro-4-(8-(4-methoxy-1-methyl-6-(trifluoromethyl)-1H-indazol-5-yl)indolizine-3-carbonyl)phenyl)-4-(((1r,4r)-4-methoxycyclohexyl)amino)but-2-enamide]", "IC50": 56.5}
{"smiles": "Cc1nc2c(Cl)c(-c3cccn4c(C(=O)c5cc(F)c(NC(=O)/C=C/CN6CCC[C@H]6CO)c(F)c5)ccc34)c(C(F)(F)F)cc2n1C", "note": "[Example 130, mono(4-chloro-5-(3-(3,5-difluoro-4-((E)-4-((2S)-2-(hydroxymethyl)pyrrolidin-1-ium-1-yl)but-2-enamido)benzoyl)indolizin-8-yl)-1,2-dimethyl-6-(trifluoromethyl)-1H-benzo[d]imidazol-3-ium) mono(2,2,2-trifluoroacetate)]", "IC50": 95.9}
{"smiles": "Cc1c2cc(C(F)(F)F)c(-c3cccn4c(C(=O)c5cc(F)c(NC(=O)/C=C/CNC6(C)COC6)c(F)c5)ccc34)c(O)c2nn1C", "note": "(single isomer, unassigned) [Example 123, (E)-N-(4-((2,6-difluoro-4-(8-(7-hydroxy-2,3-dimethyl-5-(trifluoromethyl)-2H-indazol-6-yl)indolizine-3-carbonyl)phenyl)amino)-4-oxobut-2-en-1-yl)-3-methyloxetan-3-aminium 2,2,2-trifluoroacetate]", "IC50": 78.4}
{"smiles": "Cc1nc2c(Cl)c(-c3cccn4c(C(=O)c5cc(F)c(NC(=O)/C=C/CN(C)C)c(F)c5)ccc34)c(C(F)(F)F)cc2n1C", "note": "[Example 128, mono((E)-4-chloro-5-(3-(4-(4-(dimethylammonio)but-2-enamido)-3,5-difluorobenzoyl)indolizin-8-yl)-1,2-dimethyl-6-(trifluoromethyl)-1H-benzo[d]imidazol-3-ium) mono(2,2,2-trifluoroacetate)]", "IC50": 159}
{"smiles": "COc1c(-c2cccc3c2ccn3C(=O)c2cc(F)c(NC(=O)/C=C/CN[C@H]3CCOC3)c(F)c2)c(C(F)(F)F)cc2c1nc(C)n2C", "note": "(single isomer, unassigned) [Example 116, mono(2,2,2-trifluoroacetate)]", "IC50": 14.8}
{"smiles": "Cc1nc2c(Cl)c(-c3cccn4c(C(=O)c5cc(F)c(NC(=O)/C=C/CN6CCCC6C(C)(C)O)c(F)c5)ccc34)c(C(F)(F)F)cc2n1C", "note": "(stereo not drawn) [Example 129, mono((E)-4-chloro-5-(3-(3,5-difluoro-4-(4-(2-(2-hydroxypropan-2-yl)pyrrolidin-1-ium-1-yl)but-2-enamido)benzoyl)indolizin-8-yl)-1,2-dimethyl-6-(trifluoromethyl)-1H-benzo[d]imidazol-3-ium) mono(2,2,2-trifluoroacetate)]", "IC50": 101}
{"smiles": "Cc1nc2c(Cl)c(-c3cccn4c(C(=O)c5cc(F)c(NC(=O)/C=C/CNC6(C)CCOC6)c(F)c5)ccc34)c(C(F)(F)F)cc2n1C", "note": "(single isomer, unassigned) [Example 131a, (E)-N-(4-(8-(4-chloro-1,2-dimethyl-6-(trifluoromethyl)-1H-benzo[d]imidazol-5-yl)indolizine-3-carbonyl)-2,6-difluorophenyl)-4-((3-methyltetrahydrofuran-3-yl)amino)but-2-enamide]", "IC50": 13.4}
{"smiles": "Cc1c(-c2cccn3c(C(=O)c4cc(F)c(NC(=O)/C=C/CN[C@H]5CCOC5)c(F)c4)ccc23)ccc2c1CCC2O", "note": "(stereo partly drawn) [Example 132, (3S)—N-((E)-4-((2,6-difluoro-4-(8-(1-hydroxy-4-methyl-2,3-dihydro-1H-inden-5-yl)indolizine-3-carbonyl)phenyl)amino)-4-oxobut-2-en-1-yl)tetrahydrofuran-3-aminium 2,2,2-trifluoroacetate]", "IC50": 300}
{"smiles": "CO[C@H]1CC[C@H](NC/C=C/C(=O)Nc2c(F)cc(C(=O)c3ccc4c(-c5cc6ncccc6cc5C(F)(F)F)cccn34)cc2F)CC1", "note": "[Example 120, mono(7-(3-(3,5-difluoro-4-((E)-4-(((1r,4r)-4-methoxycyclohexyl)ammonio)but-2-enamido)benzoyl)indolizin-8-yl)-6-(trifluoromethyl)quinolin-1-ium) mono(2,2,2-trifluoroacetate)]", "IC50": 482}
